According to PubChem BioAssay (NCI):
“And” between values parts separate entries of the source, which are not always exact repeats. Identical values can stand only once.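 Test compounds were applied to cells in 96-well plates for 48 hours at 5 doses. GI50 is the concentration that inhibits growth by half. TGI: concentration producing complete growth inhibition.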

Tests used:
Assay in all cases: NCI anticancer screen, dose series, 48 h
[1] = system: BT-549 breast
[2] = system: NCI-H460 lung
[3] = system: SNB-75 CNS
[4] = system: TK-10 renal
[5] = system: RPMI-8226 leukemia
[6] = system: HCT-15 colon
[7] = system: K-562 leukemia
[8] = system: HCT-116 colon
[9] = system: U251 CNS
[10] = system: NCI/ADR-RES ovarian
[11] = system: T-47D breast
[12] = system: UACC-62 melanoma
[13] = system: OVCAR-8 ovarian

Compound	TGI [1]	TGI [2]	TGI [3]	TGI [4]	TGI [5]	TGI [6]	TGI [7]	TGI [8]	TGI [9]	TGI [10]	TGI [11]	TGI [12]	TGI [13]	GI50 [2]	GI50 [4]	GI50 [5]	GI50 [7]	GI50 [10]	GI50 [12]	GI50 [13]
O=C(COc1ccc(Cl)c(Cl)c1)Nc1ccc[n+](Cc2ccc(S(=O)(=O)F)c(Cl)c2)c1	> 100 µM	> 100 µM	> 100 µM	> 100 µM	65.4 µM	> 100 µM	> 100 µM	> 100 µM	> 100 µM	> 100 µM	> 100 µM	> 100 µM	> 100 µM	–	–	–	–	–	–	–
O=C(CSCC(=O)N/N=C/c1ccc2c(c1)OCO2)N/N=C/c1ccc2c(c1)OCO2	> 100 µM	> 100 µM	> 100 µM	> 100 µM	> 100 µM	> 100 µM	> 100 µM	> 100 µM	> 100 µM	> 100 µM	> 100 µM	> 100 µM	> 100 µM	–	–	–	–	–	–	–
C[C@@H]1C[C@H]2[C@@H]3CCC4=CC(=O)C=C[C@]4(C)[C@@]3(F)[C@@H](O)C[C@]2(C)[C@@]1(O)C(=O)CO	–	–	–	> 100 µM	–	> 100 µM	> 100 µM	> 100 µM	–	–	–	> 100 µM	> 100 µM	–	–	–	–	–	–	–
C[C@H]1C[C@@H]2[C@H]([C@@H](O)C[C@@]3(C)[C@H]2CC[C@]3(O)C(=O)CO)[C@@]2(C)C=CC(=O)C=C12	–	> 100 µM	–	> 100 µM	> 100 µM	> 100 µM	> 100 µM	> 100 µM	–	–	–	> 100 µM	> 100 µM	–	–	–	–	–	–	–
COc1ccccc1/C=C/c1ccnc2ccccc12	24.4 µM	28.9 µM	17 µM	30.9 µM	37.8 µM	25 µM	30.7 µM	26.5 µM	24.2 µM	32.4 µM	–	24.5 µM	30.2 µM	–	–	–	–	–	–	–
c1ccc2c(CSCc3cccc4ccccc34)cccc2c1	> 100 µM	> 100 µM	> 100 µM	> 100 µM	–	> 100 µM	> 100 µM	> 100 µM	> 100 µM	> 100 µM	> 100 µM	> 100 µM	> 100 µM	–	–	–	–	–	–	–
C[n+]1cccc(NC(=O)c2ccc(NC(=O)C34CCC(C(=O)Nc5ccc(C(=O)Nc6ccc[n+](C)c6)cc5)(CC3)CC4)cc2)c1	–	> 100 µM	78.7 µM	–	> 100 µM	> 100 µM	> 100 µM	> 100 µM	> 100 µM	–	–	> 100 µM	> 100 µM	–	–	–	–	–	–	–
COc1cc2c(c(OC)c1OC)-c1ccc(OC)c(=O)cc1C(NC(=O)COc1ccccc1)CC2 (configuration not stated)	5.12 µM	> 10.6 µM	10.5 µM	> 93.7 µM	38.3 µM	> 100 µM	60.8 µM	–	13 µM	0.4 µM	> 100 µM	> 100 µM	13.1 µM	–	–	–	–	–	–	–
CNC(=O)OCc1nc(SC)n(C)c1CO	–	> 100 µM	> 100 µM	–	> 100 µM	> 100 µM	> 100 µM	> 100 µM	> 100 µM	> 100 µM	–	> 100 µM	> 100 µM	–	–	–	–	–	–	–
CC(=O)Nc1ccc2c(c1)/C(=C\c1ccc([N+](C)(C)C)cc1)c1ccccc1-2	> 100 µM	> 100 µM	> 100 µM	> 100 µM	91.3 µM	> 100 µM	> 100 µM	> 100 µM	> 100 µM	> 100 µM	90.1 µM	> 100 µM	> 100 µM	–	–	–	–	–	–	–
CN1C=c2c3c(ccc2=C2C=CC4C=C5OCOC5=CC4=C21)OCO3 (configuration not stated)	3.38 µM and 6.26 µM	3.18 µM and 9.8 µM	3.49 µM and 14.6 µM	3.2 µM and 24.9 µM	1.86 µM and 6.79 µM	2.89 µM and 3.2 µM	–	2.39 µM and 3.19 µM	3.05 µM and 5.73 µM	3.27 µM and 14.3 µM	4.31 µM and 5.01 µM	–	1.64 µM and 4.19 µM	1.63 µM and 3.16 µM	1.77 µM and 12 µM	0.625 µM and 2.24 µM	1.37 µM and 3.01 µM	1.58 µM and 6.13 µM	1.91 µM	0.423 µM and 1.52 µM
COc1cc(C(=O)NC2CCc3cc(OC)c(OC)c(OC)c3-c3ccc(OC)c(=O)cc32)cc(OC)c1OC (configuration not stated)	–	15.3 µM	18.3 µM	> 91.6 µM	27.4 µM	> 100 µM	22 µM	1.69 µM	33.4 µM	70.3 µM	> 100 µM	45.9 µM	> 46.1 µM	–	–	–	–	–	–	–
CC(=O)Oc1ccccc1	–	> 100 µM	> 100 µM	–	> 100 µM	> 100 µM	> 100 µM	> 100 µM	> 100 µM	–	–	> 100 µM	> 100 µM	–	–	–	–	–	–	–
